Measured values published in US7067532B2, “Substituted quinolines as antitumor agents” (AstraZeneca, priority 2000, dated 2006).

Tested on: HT29 human colon tumour cells
Assay: Cell proliferation assays
Assay type: cell-based
Conditions: HT-29, 72 hours
Procedure: Cell Proliferation Assays Cells were seeded into multi-well plates at 20000–40000 cells/ml in growth medium containing 5% FCS and incubated overnight at 37° C. The compounds were prepared in fresh medium at an appropriate concentration and added to the wells containing the cells. These were then incubated for a further 72 hours. Cells were then either removed from the wells by incubating with trypsin/EDTA and counted using a Coulter counter, or treated with XTT/PMS in PBSA and optical densities read at 450 nm.

Structure (SMILES): CNC(=O)COc1ccccc1Oc1ccc(Nc2c(C#N)cnc3cc(NCCCN4CCOCC4)c(OC)cc23)cc1 [Compound 11]
- IC50: 1300 nM
